The source of these data is the OligoGym collection.

Several values for one entry are separate records, joined by “and”; a condition that tells them apart may be missing. Identical values can stand only once. HELM strings list units from the 5' end as sugar, base in round brackets, then linkage (d deoxyribose, r ribose, m 2'-O-methyl, p phosphodiester). Strings are as the collection lists them, not checked against the first reports. ss, as = sense and antisense strand; [lna] = locked nucleic acid (LNA); [una] = unlocked nucleic acid; [s4r] = 4'-thioribose; [fl2r] = 2'-fluoro
Note: test system not given here.

The conditions of this data set: siRNA.
With “RNA1{r(C)p.r(U)p.r(U)p.r(A)p.r(C)p.r(G)p.r(C)p.r(U)p.r(G)p.r(A)p.r(G)p.r(U)p.r(A)p.r(C)p.r(U)p.r(U)p.r(C)p.r(G)p.r(A)p.r(T)p.r(T)}|RNA2{r(U)p.r(C)p.r(G)p.[lna](A)p.r(A)p.r(G)p.r(U)p.r(A)p.r(C)p.r(U)p.r(C)p.r(A)p.r(G)p.r(C)p.r(G)p.r(U)p.r(A)p.r(A)p.r(G)p.r(T)p.r(T)}$$$RNA1{StrandType:ss}|RNA2{StrandType:as}$”, the target mRNA knockdown was found to be 85%.

“RNA1{r(U)p.r(C)p.r(C)p.m(U)p.r(A)p.r(G)p.r(C)p.r(U)p.r(G)p.r(U)p.r(C)p.r(U)p.r(U)p.r(G)p.r(U)p.r(C)p.r(C)p.r(C)p.r(U)p.r(T)p.r(T)}|RNA2{r(A)p.r(G)p.r(G)p.r(G)p.r(A)p.r(C)p.r(A)p.r(A)p.r(G)p.r(A)p.r(C)p.r(A)p.r(G)p.r(C)p.m(U)p.r(A)p.r(G)p.r(G)p.r(A)p.r(T)p.r(T)}$$$RNA1{StrandType:ss}|RNA2{StrandType:as}$” returned a target mRNA knockdown of 71%.

“RNA1{[s4r](C)p.[s4r](G)p.[s4r](U)p.[s4r](A)p.[s4r](C)p.[s4r](G)p.r(C)p.r(G)p.r(G)p.r(A)p.r(A)p.r(U)p.r(A)p.r(C)p.r(U)p.r(U)p.r(C)p.r(G)p.r(A)p.r(T)p.r(T)}|RNA2{r(U)p.r(C)p.r(G)p.r(A)p.r(A)p.r(G)p.r(U)p.r(A)p.r(U)p.r(U)p.r(C)p.r(C)p.r(G)p.r(C)p.r(G)p.r(U)p.r(A)p.r(C)p.r(G)p.r(T)p.r(T)}$$$RNA1{StrandType:ss}|RNA2{StrandType:as}$” returned a target mRNA knockdown of 94%.

As for “RNA1{m(G)p.r(A)p.m(A)p.r(G)p.m(G)p.r(G)p.m(G)p.r(A)p.m(A)p.r(A)p.m(U)p.r(C)p.m(U)p.r(G)p.m(U)p.r(G)p.m(G)p.r(U)p.m(U)p.r(T)p.r(T)}|RNA2{r(A)p.r(A)p.r(C)p.r(C)p.r(A)p.r(C)p.r(A)p.r(G)p.r(A)p.r(U)p.r(U)p.r(U)p.r(C)p.r(C)p.r(C)p.r(C)p.r(U)p.r(U)p.r(C)p.r(T)p.r(T)}$$$RNA1{StrandType:ss}|RNA2{StrandType:as}$”, the target mRNA knockdown stood at 41%.

For “RNA1{[fl2r](A)p.r(G)p.[fl2r](C)p.r(C)p.[fl2r](C)p.r(A)p.[fl2r](G)p.r(A)p.[fl2r](U)p.r(A)p.[fl2r](G)p.r(C)p.[fl2r](U)p.r(C)p.[fl2r](U)p.r(U)p.[fl2r](C)p.r(A)p.[fl2r](G)p.r(T)p.r(T)}|RNA2{r(C)p.r(U)p.r(G)p.r(A)p.r(A)p.r(G)p.r(A)p.r(G)p.r(C)p.r(U)p.r(A)p.r(U)p.r(C)p.r(U)p.r(G)p.r(G)p.r(G)p.r(C)p.r(U)p.r(T)p.r(T)}$$$RNA1{StrandType:ss}|RNA2{StrandType:as}$”, the target mRNA knockdown came to 35%.

“RNA1{[fl2r](U)p.r(C)p.[fl2r](C)p.r(A)p.[fl2r](A)p.r(G)p.[fl2r](C)p.r(U)p.[fl2r](U)p.r(C)p.[fl2r](C)p.r(U)p.[fl2r](C)p.r(G)p.[fl2r](U)p.r(U)p.[fl2r](G)p.r(G)p.[fl2r](U)p.r(T)p.r(T)}|RNA2{r(A)p.r(C)p.r(C)p.r(A)p.r(A)p.r(C)p.r(G)p.r(A)p.r(G)p.r(G)p.r(A)p.r(A)p.r(G)p.r(C)p.[fl2r](U)p.[fl2r](U)p.r(G)p.r(G)p.r(A)p.r(T)p.r(T)}$$$RNA1{StrandType:ss}|RNA2{StrandType:as}$” registered a target mRNA knockdown of 51%.

On to “RNA1{r(A)p.r(A)p.r(G)p.r(G)p.m(C)p.r(A)p.m(U)p.m(G)p.r(C)p.r(U)p.r(U)p.r(C)p.r(G)p.r(G)p.r(A)p.r(A)p.r(A)p.r(C)p.r(U)p.r(T)p.r(T)}|RNA2{r(A)p.r(G)p.r(U)p.r(U)p.r(U)p.r(C)p.r(C)p.r(G)p.r(A)p.r(A)p.r(G)p.m(C)p.r(A)p.m(U)p.r(G)p.r(C)p.r(C)p.r(U)p.r(U)p.r(T)p.r(T)}$$$RNA1{StrandType:ss}|RNA2{StrandType:as}$”, for which the target mRNA knockdown stood at 87%.

The substance “RNA1{r(A)p.r(A)p.r(G)p.r(G)p.r(C)p.r(C)p.r(A)p.r(A)p.r(C)p.r(C)p.r(G)p.r(A)p.[fl2r](U)p.r(A)p.r(C)p.r(U)p.r(U)p.r(C)p.r(U)p.r(T)p.r(T)}|RNA2{r(A)p.r(G)p.r(A)p.r(A)p.r(G)p.[fl2r](U)p.r(A)p.r(U)p.r(C)p.r(G)p.r(G)p.r(U)p.r(U)p.r(G)p.r(G)p.r(C)p.r(C)p.r(U)p.r(U)p.r(T)p.r(T)}$$$RNA1{StrandType:ss}|RNA2{StrandType:as}$” returned a target mRNA knockdown of 69%.

For the substance “RNA1{r(C)p.r(U)p.r(G)p.r(A)p.r(C)p.r(C)p.r(G)p.r(G)p.r(A)p.r(A)p.r(G)p.r(C)p.r(G)p.r(C)p.r(U)p.m(U)p.r(A)p.r(A)p.r(A)p.r(T)p.r(T)}|RNA2{r(U)p.r(U)p.m(U)p.r(A)p.r(A)p.r(G)p.r(C)p.r(G)p.r(C)p.r(U)p.r(U)p.r(C)p.r(C)p.r(G)p.r(G)p.r(U)p.r(C)p.r(A)p.r(G)p.r(T)p.r(T)}$$$RNA1{StrandType:ss}|RNA2{StrandType:as}$”, the target mRNA knockdown turned out to be 86%.

On to “RNA1{[s4r](C)p.[s4r](G)p.[s4r](U)p.[s4r](A)p.r(C)p.r(G)p.r(C)p.r(G)p.r(G)p.r(A)p.r(A)p.r(U)p.r(A)p.r(C)p.r(U)p.[s4r](U)p.[s4r](C)p.[s4r](G)p.[s4r](A)p.r(T)p.r(T)}|RNA2{[s4r](U)p.[s4r](C)p.r(G)p.r(A)p.r(A)p.r(G)p.r(U)p.r(A)p.r(U)p.r(U)p.r(C)p.r(C)p.r(G)p.r(C)p.r(G)p.r(U)p.r(A)p.[s4r](C)p.[s4r](G)p.r(T)p.r(T)}$$$RNA1{StrandType:ss}|RNA2{StrandType:as}$”, for which the target mRNA knockdown worked out at 87.7%.

“RNA1{r(C)p.r(U)p.r(A)p.r(A)p.r(G)p.r(G)p.r(A)p.r(C)p.r(C)p.r(U)p.r(A)p.r(A)p.r(C)p.r(A)p.r(A)p.[una](A)p.r(G)p.[una](U)p.[una](U)p.r(U)p.r(U)}|RNA2{r(A)p.r(A)p.r(C)p.r(U)p.r(U)p.r(U)p.r(G)p.r(U)p.r(U)p.r(A)p.r(G)p.r(G)p.r(U)p.r(C)p.r(C)p.r(U)p.r(U)p.r(A)p.r(G)p.r(U)p.r(U)}$$$RNA1{StrandType:ss}|RNA2{StrandType:as}$” yielded a target mRNA knockdown of 70%.

As for “RNA1{r(A)p.r(G)p.r(A)p.r(A)p.r(A)p.m(C)p.r(G)p.m(C)p.r(A)p.r(G)p.m(U)p.r(A)p.r(A)p.m(U)p.m(C)p.m(C)p.r(G)p.r(G)p.r(A)p.r(T)p.r(T)}|RNA2{m(U)p.m(C)p.m(C)p.r(G)p.r(G)p.r(A)p.m(U)p.m(U)p.r(A)p.m(C)p.m(U)p.r(G)p.m(C)p.r(G)p.m(U)p.m(U)p.m(U)p.m(C)p.m(U)p.r(T)p.r(T)}$$$RNA1{StrandType:ss}|RNA2{StrandType:as}$”, the target mRNA knockdown came to 80%.

Consider “RNA1{r(G)p.r(A)p.r(A)p.r(G)p.r(A)p.[fl2r](U)p.r(A)p.r(G)p.r(G)p.r(A)p.r(A)p.r(G)p.r(G)p.r(G)p.r(G)p.r(C)p.r(U)p.r(U)p.r(C)p.r(T)p.r(T)}|RNA2{r(G)p.r(A)p.r(A)p.r(G)p.r(C)p.r(C)p.r(C)p.r(C)p.r(U)p.r(U)p.r(C)p.r(C)p.[fl2r](U)p.r(A)p.r(U)p.r(C)p.r(U)p.r(U)p.r(C)p.r(T)p.r(T)}$$$RNA1{StrandType:ss}|RNA2{StrandType:as}$”, for which the target mRNA knockdown is 56%.

“RNA1{r(A)p.r(C)p.r(G)p.r(G)p.r(C)p.r(U)p.r(C)p.r(G)p.r(C)p.r(U)p.[fl2r](A)p.r(C)p.r(C)p.r(C)p.r(U)p.r(C)p.r(G)p.r(A)p.r(C)p.r(T)p.r(T)}|RNA2{r(G)p.r(U)p.r(C)p.r(G)p.r(A)p.r(G)p.r(G)p.r(G)p.r(U)p.r(A)p.r(G)p.r(C)p.r(G)p.r(A)p.r(G)p.r(C)p.r(C)p.r(G)p.r(U)p.r(T)p.r(T)}$$$RNA1{StrandType:ss}|RNA2{StrandType:as}$” gave a target mRNA knockdown of 83%.

“RNA1{r(C)p.r(U)p.r(U)p.r(A)p.r(C)p.r(G)p.r(C)p.r(U)p.r(G)p.r(A)p.r(G)p.r(U)p.r(A)p.r(C)p.r(U)p.r(U)p.r(C)p.r(G)p.r(A)p.[lna](T)p.[lna](T)}|RNA2{r(U)p.r(C)p.r(G)p.r(A)p.r(A)p.r(G)p.r(U)p.r(A)p.r(C)p.r(U)p.r(C)p.r(A)p.r(G)p.r(C)p.r(G)p.r(U)p.r(A)p.r(A)p.r(G)p.d(T)p.d(T)}$$$RNA1{StrandType:ss}|RNA2{StrandType:as}$” returned a target mRNA knockdown of 96%.

Take “RNA1{r(C)p.r(G)p.r(U)p.r(A)p.r(C)p.r(G)p.r(C)p.r(G)p.r(G)p.r(A)p.r(A)p.r(U)p.r(A)p.r(C)p.r(U)p.r(U)p.r(C)p.r(G)p.r(A)p.r(T)p.r(T)}|RNA2{r(U)p.r(C)p.r(G)p.r(A)p.r(A)p.r(G)p.r(U)p.r(A)p.r(U)p.r(U)p.r(C)p.r(C)p.r(G)p.[s4r](C)p.[s4r](G)p.[s4r](U)p.[s4r](A)p.[s4r](C)p.[s4r](G)p.r(T)p.r(T)}$$$RNA1{StrandType:ss}|RNA2{StrandType:as}$”: the target mRNA knockdown came to 72.2%.

As to “RNA1{[s4r](C)p.[s4r](G)p.[s4r](U)p.[s4r](A)p.[s4r](C)p.[s4r](G)p.r(C)p.r(G)p.r(G)p.r(A)p.r(A)p.r(U)p.r(A)p.[s4r](C)p.[s4r](U)p.[s4r](U)p.[s4r](C)p.[s4r](G)p.[s4r](A)p.r(T)p.r(T)}|RNA2{r(U)p.r(C)p.r(G)p.r(A)p.r(A)p.r(G)p.r(U)p.r(A)p.r(U)p.r(U)p.r(C)p.r(C)p.r(G)p.r(C)p.r(G)p.r(U)p.r(A)p.r(C)p.r(G)p.r(T)p.r(T)}$$$RNA1{StrandType:ss}|RNA2{StrandType:as}$”, the target mRNA knockdown amounted to 91.5%.

Substance “RNA1{[s4r](C)p.[s4r](G)p.[s4r](U)p.[s4r](A)p.[s4r](C)p.[s4r](G)p.r(C)p.r(G)p.r(G)p.r(A)p.r(A)p.r(U)p.r(A)p.[s4r](C)p.[s4r](U)p.[s4r](U)p.[s4r](C)p.[s4r](G)p.[s4r](A)p.r(T)p.r(T)}|RNA2{r(U)p.r(C)p.r(G)p.r(A)p.r(A)p.r(G)p.r(U)p.r(A)p.r(U)p.r(U)p.r(C)p.r(C)p.r(G)p.r(C)p.r(G)p.[s4r](U)p.[s4r](A)p.[s4r](C)p.[s4r](G)p.r(T)p.r(T)}$$$RNA1{StrandType:ss}|RNA2{StrandType:as}$” displayed a target mRNA knockdown of 44.4%.

As for “RNA1{r(U)p.r(G)p.r(A)p.r(A)p.r(U)p.r(C)p.r(A)p.r(G)p.r(A)p.r(A)p.r(G)p.r(A)p.r(U)p.r(G)p.r(A)p.r(A)p.r(G)p.r(U)p.r(C)p.r(A)p.r(A)}|RNA2{[una](G)p.r(A)p.r(C)p.r(U)p.r(U)p.r(C)p.r(A)p.r(U)p.r(C)p.r(U)p.r(U)p.r(C)p.r(U)p.r(G)p.r(A)p.r(U)p.r(U)p.r(C)p.r(A)p.r(A)p.r(G)}$$$RNA1{StrandType:ss}|RNA2{StrandType:as}$”, the target mRNA knockdown was 94% and 92%.
